Measurements taken from the supplement of paper PMC10307832.

Experiments:
Assay in all cases: relative viability (nuclei count vs DMSO), 5 days (fraction); higher = more cells survive
[1] = compound: CC1(C)CNc2cc(NC(=O)c3cccnc3NCc3ccncc3)ccc21 [Motesanib] + COc1cc2c(Oc3ccc(NC(=O)C4(C(=O)Nc5ccc(F)cc5)CC4)cc3F)ccnc2cc1OCCCN1CCOCC1 [Foretinib] (partner 0.25 µM)
Method in brief: (§1)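 Relative viability is defined as nuclei in treated wells over nuclei in vehicle wells. Duplicate plates were run and medians reported. Lung cancer cell lines in 1536-well plates were dosed by pin tool one day after seeding, with one drug or with a fixed anchor-drug dose plus five library-drug doses (not always all listed) in √10 steps, and nuclei were counted after 5 days.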

[2] = compound: C[C@@]1(C(=O)Nc2ccc(F)nc2)CCCN1c1nc(Nc2cc(C3CC3)n[nH]2)c2cccn2n1 + CS(=O)(=O)N1CCN(Cc2cc3nc(-c4cccc5[nH]ncc45)nc(N4CCOCC4)c3s2)CC1 [Pictilisib] (partner 1 µM)
Method in brief: as §1

[3] = compound: CC1(C)CNc2cc(NC(=O)c3cccnc3NCc3ccncc3)ccc21 [Motesanib] + C[C@@H](Oc1cc(-c2cnn(C3CCNCC3)c2)cnc1N)c1c(Cl)ccc(F)c1Cl [Crizotinib] (partner 1 µM)
Method in brief: as §1

[4] = compound: CC1(C)CNc2cc(NC(=O)c3cccnc3NCc3ccncc3)ccc21 [Motesanib] + C[C@]1(O)C[C@@H](c2nc(-c3ccc4ccc(-c5ccccc5)nc4c3)c3c(N)nccn32)C1 [Linsitinib] (partner 1 µM)
Method in brief: as §1

How did the relative viability ([1]; first compound 0.01 µM) turn out when NCI-H1437 was run?
Its relative viability is 1.28.

And the relative viability ([1]; first compound 0.03162 µM)?
Its relative viability is 1.24.

And the relative viability ([1]; first compound 0.1 µM)?
The relative viability was 1.25.

And the relative viability ([1]; first compound 0.3162 µM)?
Its relative viability is 1.3.

What about the relative viability ([1]; first compound 1 µM) of the same cell line?
Its relative viability is 1.33.

What about the relative viability ([2]; first compound 0.04 µM) of the same cell line?
Its relative viability is 0.271.

And the relative viability ([2]; first compound 0.1265 µM)?
Its relative viability is 0.295.

What about the relative viability ([2]; first compound 0.4 µM) of the same cell line?
Its relative viability is 0.248.

And the relative viability ([2]; first compound 1.265 µM)?
The relative viability was 0.363.

And the relative viability ([3]; first compound 0.01 µM)?
The relative viability was 0.888.

And the relative viability ([3]; first compound 0.03162 µM)?
The relative viability was 0.996.

What about the relative viability ([3]; first compound 0.1 µM) of the same cell line?
The relative viability was 0.963.

And the relative viability ([3]; first compound 0.3162 µM)?
The relative viability was 0.95.

What about the relative viability ([3]; first compound 1 µM) of the same cell line?
Its relative viability is 1.05.

And the relative viability ([4]; first compound 0.01 µM)?
Its relative viability is 0.972.

What about the relative viability ([4]; first compound 0.03162 µM) of the same cell line?
The relative viability was 1.08.

And the relative viability ([4]; first compound 0.1 µM)?
Its relative viability is 1.01.

And the relative viability ([4]; first compound 0.3162 µM)?
Its relative viability is 1.01.

And the relative viability ([4]; first compound 1 µM)?
The relative viability was 1.13.

For NCI-H650, which relative viability ([1]; first compound 0.01 µM) is on record?
Its relative viability is 1.05.

What about the relative viability ([1]; first compound 0.1 µM) of the same cell line?
The relative viability was 1.02.

And the relative viability ([1]; first compound 0.3162 µM)?
Its relative viability is 0.974.

And the relative viability ([1]; first compound 1 µM)?
Its relative viability is 1.02.

And the relative viability ([2]; first compound 0.04 µM)?
The relative viability was 0.916.

And the relative viability ([2]; first compound 0.1265 µM)?
Its relative viability is 0.651.

What about the relative viability ([2]; first compound 0.4 µM) of the same cell line?
Its relative viability is 0.689.

And the relative viability ([2]; first compound 1.265 µM)?
Its relative viability is 0.722.

What about the relative viability ([3]; first compound 0.01 µM) of the same cell line?
Its relative viability is 0.774.

What about the relative viability ([3]; first compound 0.03162 µM) of the same cell line?
The relative viability was 0.685.

What about the relative viability ([3]; first compound 0.1 µM) of the same cell line?
Its relative viability is 0.874.

And the relative viability ([3]; first compound 0.3162 µM)?
The relative viability was 0.71.

And the relative viability ([3]; first compound 1 µM)?
The relative viability was 0.522.

What about the relative viability ([4]; first compound 0.01 µM) of the same cell line?
Its relative viability is 0.779.

What about the relative viability ([4]; first compound 0.03162 µM) of the same cell line?
Its relative viability is 0.833.

And the relative viability ([4]; first compound 0.1 µM)?
The relative viability was 0.936.

And the relative viability ([4]; first compound 0.3162 µM)?
Its relative viability is 1.02.

What about the relative viability ([4]; first compound 1 µM) of the same cell line?
The relative viability was 0.795.

Which results are given for COR-L23?
relative viability ([1]; first compound 0.01 µM): 0.993; relative viability ([1]; first compound 0.03162 µM): 1.06; relative viability ([1]; first compound 0.1 µM): 0.992; relative viability ([1]; first compound 0.3162 µM): 0.964; relative viability ([1]; first compound 1 µM): 0.955; relative viability ([2]; first compound 0.04 µM): 0.518; relative viability ([2]; first compound 0.1265 µM): 0.463; relative viability ([2]; first compound 0.4 µM): 0.31; relative viability ([2]; first compound 1.265 µM): 0.335; relative viability ([3]; first compound 0.01 µM): 0.512; relative viability ([3]; first compound 0.03162 µM): 0.639; relative viability ([3]; first compound 0.1 µM): 0.703; relative viability ([3]; first compound 0.3162 µM): 0.643; relative viability ([3]; first compound 1 µM): 0.547; relative viability ([4]; first compound 0.01 µM): 0.943; relative viability ([4]; first compound 0.03162 µM): 0.862; relative viability ([4]; first compound 0.1 µM): 0.92; relative viability ([4]; first compound 0.3162 µM): 1.09; relative viability ([4]; first compound 1 µM): 0.905

Which results are given for COR-L 105?
relative viability ([1]; first compound 0.01 µM): 1.2; relative viability ([1]; first compound 0.03162 µM): 1.03; relative viability ([1]; first compound 0.1 µM): 1.16; relative viability ([1]; first compound 0.3162 µM): 0.821; relative viability ([1]; first compound 1 µM): 1.42; relative viability ([2]; first compound 0.04 µM): 0.414; relative viability ([2]; first compound 0.1265 µM): 0.328; relative viability ([2]; first compound 0.4 µM): 0.26; relative viability ([2]; first compound 1.265 µM): 0.241; relative viability ([3]; first compound 0.01 µM): 0.981; relative viability ([3]; first compound 0.03162 µM): 0.739; relative viability ([3]; first compound 0.1 µM): 0.743; relative viability ([3]; first compound 0.3162 µM): 0.73; relative viability ([3]; first compound 1 µM): 0.756; relative viability ([4]; first compound 0.01 µM): 0.872; relative viability ([4]; first compound 0.03162 µM): 1.22; relative viability ([4]; first compound 0.1 µM): 1.04; relative viability ([4]; first compound 0.3162 µM): 0.889; relative viability ([4]; first compound 1 µM): 1.17

Which relative viability ([1]; first compound 0.01 µM) does the source give for LK-2 here?
The relative viability was 1.21.

And the relative viability ([1]; first compound 0.03162 µM)?
Its relative viability is 1.08.

And the relative viability ([1]; first compound 0.3162 µM)?
The relative viability was 1.27.

And the relative viability ([1]; first compound 1 µM)?
The relative viability was 1.31.

And the relative viability ([2]; first compound 0.04 µM)?
Its relative viability is 0.574.

What about the relative viability ([2]; first compound 0.1265 µM) of the same cell line?
Its relative viability is 0.565.

What about the relative viability ([2]; first compound 0.4 µM) of the same cell line?
The relative viability was 0.569.

And the relative viability ([2]; first compound 1.265 µM)?
The relative viability was 0.523.

And the relative viability ([3]; first compound 0.01 µM)?
Its relative viability is 0.232.

And the relative viability ([3]; first compound 0.03162 µM)?
The relative viability was 0.234.

And the relative viability ([3]; first compound 0.1 µM)?
The relative viability was 0.231.

And the relative viability ([3]; first compound 0.3162 µM)?
The relative viability was 0.249.

And the relative viability ([3]; first compound 1 µM)?
The relative viability was 0.217.

And the relative viability ([4]; first compound 0.01 µM)?
Its relative viability is 0.426.

What about the relative viability ([4]; first compound 0.03162 µM) of the same cell line?
The relative viability was 0.44.

What about the relative viability ([4]; first compound 0.1 µM) of the same cell line?
The relative viability was 0.369.

What about the relative viability ([4]; first compound 0.3162 µM) of the same cell line?
Its relative viability is 0.623.

And the relative viability ([4]; first compound 1 µM)?
The relative viability was 0.582.

How did the relative viability ([1]; first compound 0.01 µM) turn out when 201T was run?
Its relative viability is 1.09.

What about the relative viability ([1]; first compound 0.03162 µM) of the same cell line?
Its relative viability is 1.1.

And the relative viability ([1]; first compound 0.1 µM)?
Its relative viability is 0.997.

What about the relative viability ([1]; first compound 0.3162 µM) of the same cell line?
The relative viability was 1.13.

And the relative viability ([1]; first compound 1 µM)?
The relative viability was 1.1.

And the relative viability ([2]; first compound 0.04 µM)?
Its relative viability is 0.638.

And the relative viability ([2]; first compound 0.1265 µM)?
The relative viability was 0.622.

And the relative viability ([2]; first compound 0.4 µM)?
Its relative viability is 0.554.

What about the relative viability ([2]; first compound 1.265 µM) of the same cell line?
The relative viability was 0.614.

And the relative viability ([3]; first compound 0.01 µM)?
The relative viability was 1.02.

And the relative viability ([3]; first compound 0.03162 µM)?
The relative viability was 1.07.

What about the relative viability ([3]; first compound 0.1 µM) of the same cell line?
The relative viability was 1.04.

What about the relative viability ([3]; first compound 0.3162 µM) of the same cell line?
Its relative viability is 1.04.

What about the relative viability ([3]; first compound 1 µM) of the same cell line?
Its relative viability is 1.06.

And the relative viability ([4]; first compound 0.01 µM)?
The relative viability was 1.

What about the relative viability ([4]; first compound 0.03162 µM) of the same cell line?
Its relative viability is 1.09.

And the relative viability ([4]; first compound 0.1 µM)?
The relative viability was 1.03.

And the relative viability ([4]; first compound 0.3162 µM)?
Its relative viability is 1.05.

What about the relative viability ([4]; first compound 1 µM) of the same cell line?
The relative viability was 1.02.

How did the relative viability ([1]; first compound 0.01 µM) turn out when NCI-H596 was run?
Its relative viability is 0.817.

What about the relative viability ([1]; first compound 0.03162 µM) of the same cell line?
The relative viability was 0.818.

What about the relative viability ([1]; first compound 0.1 µM) of the same cell line?
Its relative viability is 0.98.

And the relative viability ([1]; first compound 0.3162 µM)?
The relative viability was 0.656.

And the relative viability ([1]; first compound 1 µM)?
The relative viability was 0.806.

And the relative viability ([2]; first compound 0.04 µM)?
Its relative viability is 0.378.

And the relative viability ([2]; first compound 0.1265 µM)?
Its relative viability is 0.349.

What about the relative viability ([2]; first compound 0.4 µM) of the same cell line?
The relative viability was 0.335.

What about the relative viability ([2]; first compound 1.265 µM) of the same cell line?
Its relative viability is 0.316.

And the relative viability ([3]; first compound 0.01 µM)?
Its relative viability is 0.937.

What about the relative viability ([3]; first compound 0.03162 µM) of the same cell line?
The relative viability was 0.884.

What about the relative viability ([3]; first compound 0.1 µM) of the same cell line?
The relative viability was 0.958.

And the relative viability ([3]; first compound 0.3162 µM)?
The relative viability was 1.12.

And the relative viability ([3]; first compound 1 µM)?
Its relative viability is 1.05.

What about the relative viability ([4]; first compound 0.01 µM) of the same cell line?
The relative viability was 1.1.

What about the relative viability ([4]; first compound 0.03162 µM) of the same cell line?
The relative viability was 0.937.

And the relative viability ([4]; first compound 0.1 µM)?
The relative viability was 1.08.

What about the relative viability ([4]; first compound 0.3162 µM) of the same cell line?
Its relative viability is 1.12.

And the relative viability ([4]; first compound 1 µM)?
The relative viability was 1.08.

Which results are given for H3255?
relative viability ([1]; first compound 0.01 µM): 0.837; relative viability ([1]; first compound 0.03162 µM): 0.762; relative viability ([1]; first compound 0.1 µM): 0.889; relative viability ([1]; first compound 0.3162 µM): 0.791; relative viability ([1]; first compound 1 µM): 0.976; relative viability ([2]; first compound 0.04 µM): 0.49; relative viability ([2]; first compound 0.1265 µM): 0.423; relative viability ([2]; first compound 0.4 µM): 0.415; relative viability ([2]; first compound 1.265 µM): 0.371; relative viability ([3]; first compound 0.01 µM): 0.793; relative viability ([3]; first compound 0.03162 µM): 0.883; relative viability ([3]; first compound 0.1 µM): 0.986; relative viability ([3]; first compound 0.3162 µM): 0.838; relative viability ([3]; first compound 1 µM): 0.863; relative viability ([4]; first compound 0.01 µM): 0.949; relative viability ([4]; first compound 0.03162 µM): 1.02; relative viability ([4]; first compound 0.1 µM): 0.913; relative viability ([4]; first compound 0.3162 µM): 1.06; relative viability ([4]; first compound 1 µM): 0.871
